# Test results published in PubChem BioAssay AID1259408 (Genetic Toxicology Data Bank (GENE-TOX), 2018).
# Calls of active or inactive are those of the source. How the calls were made is not given here.
# System: GENE-TOX genotoxicity assays, various organisms and cells
# Assay: GENE-TOX mutagenicity studies
# [1] = Species/Cell Type: Salmonella typhimurium (one or more of the five standard strains: TA98, TA100, TA1535, TA1537, and TA1538), Assay Type: Histidine reverse gene mutation, Ames assay, Assay Code: SAL+, Evaluation Type: Evaluation A (Pre-1980)
# [2] = Species/Cell Type: Salmonella typhimurium (one or more of the five standard strains: TA98, TA100, TA1535, TA1537, and TA1538), Assay Type: Histidine reverse gene mutation, Ames assay, Assay Code: SAL+*, Activation: With metabolic activation, Evaluation Type: Evaluation A (Pre-1980)
# [3] = Species/Cell Type: Rodents, Sex: Male, Assay Type: Dominant lethal test, Assay Code: DLT+, Evaluation Type: Evaluation A (Pre-1980)
# [4] = Species/Cell Type: Salmonella typhimurium (one or more of the five standard strains: TA98, TA100, TA1535, TA1537, and TA1538), Assay Type: Histidine reverse gene mutation, Ames assay, Assay Code: SALT, Evaluation Type: Evaluation A (Pre-1980)
# [5] = Species/Cell Type: Saccharomyces cerevisiae, Assay Type: Mitotic recombination or gene conversion, Assay Code: YEH+, Evaluation Type: Evaluation A (Pre-1980)
# [6] = Species/Cell Type: Mouse, Sex: Male, Assay Type: Sperm morphology, Assay Code: SPI-, Evaluation Type: Evaluation A (Pre-1980)
# [7] = Species/Cell Type: Drosophila melanogaster, Assay Type: Sex-linked recessive lethal gene mutation, Assay Code: SRL+, Evaluation Type: Evaluation A (Pre-1980)
smiles,measurement,setting,value
Nc1nc(N)nc(-c2ccc([N+](=O)[O-])o2)n1,mutagenic call,[1],active; positive
c1ccc2c(c1)ccc1ncccc12,mutagenic call,[2],active; positive
O=CNNc1nc(-c2ccco2)cs1,mutagenic call,"Species/Cell Type: Escherichia coli WP2, Assay Type: Tryptophan reverse gene mutation, Assay Code: WP2-, Evaluation Type: Evaluation A (Pre-1980)",inactive; negative
same,mutagenic call,"Species/Cell Type: Escherichia coli WP2 UVRA, Assay Type: Tryptophan reverse gene mutation, Assay Code: WPU-, Evaluation Type: Evaluation A (Pre-1980)",inactive; negative
O=P(N1CC1)(N1CC1)N1CCN(P(=O)(N2CC2)N2CC2)CC1,mutagenic call,"Species/Cell Type: Human lymphocytes, Assay Type: Sister-chromatid exchange (SCE) in vitro, Assay Code: SCL+D, Dose Response: With dose response, Evaluation Type: Evaluation B (Post-1980)",active; positive
same,mutagenic call,"Species/Cell Type: Human, Assay Type: Sister-chromatid exchange (SCE) in vitro, Assay Code: SC1+D, Dose Response: With dose response, Evaluation Type: Evaluation B (Post-1980)",active; positive
same,mutagenic call,"Species/Cell Type: Nonhuman, Assay Type: Sister-chromatid exchange (SCE) in vitro, Assay Code: SC2+D, Dose Response: With dose response, Evaluation Type: Evaluation B (Post-1980)",active; positive
CC1=CC2=C(C=O)C(=O)[C@](C)(O)[C@@H](O)C2=CO1,mutagenic call,[1],active; positive
COc1ccc2nc3cc(Cl)ccc3c(NCCCNCCCl)c2n1,mutagenic call,"Species/Cell Type: Chinese hamster ovary (CHO) cells, Assay Type: Forward gene mutation at the HPRT locus, Assay Code: CHO+D, Dose Response: With dose response, Evaluation Type: Evaluation A (Pre-1980)",active; positive
Cc1ccc2cc3c(cc(O)c4ccccc43)c3c2c1CC3,mutagenic call,"Species/Cell Type: Mouse prostate cells, Assay Type: Cell transformation, Assay Code: CTM+, Evaluation Type: Evaluation A (Pre-1980)",active; positive
O=[N+]([O-])c1cccc(O)c1,mutagenic call,"Species/Cell Type: Allium cepa, Assay Type: Chromosome aberrations, Assay Code: ALC-, Evaluation Type: Evaluation A (Pre-1980)",inactive; negative
CCCCCC[C@@H](O)[C@@H]1C2=C(C[C@H]([C@H](O)[C@@H]3CC=CC(=O)O3)CC3=C(C(=O)OC3=O)[C@@H]1O)C(=O)OC2=O,mutagenic call,"Species/Cell Type: Bacillus subtilis (H17 vs M45), Assay Type: Rec-assay, spot test, DNA effects (bacterial DNA repair), Assay Code: REW-, Evaluation Type: Evaluation A (Pre-1980)",inactive; negative
same,mutagenic call,[3],active; positive
same,mutagenic call,"Species/Cell Type: Saccharomyces cerevisiae, Assay Type: Mitotic recombination or gene conversion, Assay Code: YEH-, Evaluation Type: Evaluation A (Pre-1980)",inactive; negative
same,mutagenic call,[4],no conclusion
Nc1ccc(O)c2c1C(=O)c1ccccc1C2=O,mutagenic call,[1],active; positive
COc1cc(NO)ccc1N=Nc1ccccc1,mutagenic call,[4],no conclusion
C[C@@H](CC[C@H](C)OS(C)(=O)=O)OS(C)(=O)=O,mutagenic call,[3],active; positive
CN(Cc1cnc2nc(N)nc(N)c2n1)c1ccc(C(=O)N[C@@H](CCC(=O)O)C(=O)O)cc1,mutagenic call,"Species/Cell Type: Arabidopsis species, Assay Type: Gene mutation, Assay Code: ARM-, Evaluation Type: Evaluation A (Pre-1980)",inactive; negative
same,mutagenic call,"Species/Cell Type: Escherichia coli WP2, Assay Type: Tryptophan reverse gene mutation, Assay Code: WP2+, Evaluation Type: Evaluation A (Pre-1980)",active; positive
same,mutagenic call,"Species/Cell Type: Escherichia coli polA (W3119 vs P3478), Assay Type: Rec-assay, DNA effects (bacterial DNA repair), Assay Code: RE1T, Evaluation Type: Evaluation A (Pre-1980)",no conclusion
same,mutagenic call,"Species/Cell Type: Human diploid fibroblasts, Assay Type: Unscheduled DNA synthesis (UDS) in vitro, DNA effects, Assay Code: UDH-, Evaluation Type: Evaluation A (Pre-1980)",inactive; negative
same,mutagenic call,"Species/Cell Type: Human lymphocytes, Assay Type: Sister-chromatid exchange (SCE) in vivo, Assay Code: SCY+, Evaluation Type: Evaluation B (Post-1980)",active; positive
same,mutagenic call,"Species/Cell Type: Human, Sex: Male, Assay Type: Sperm morphology, Assay Code: SPH+, Evaluation Type: Evaluation A (Pre-1980)",active; positive
same,mutagenic call,"Species/Cell Type: Mammalian oocytes or early embryo, Assay Type: Chromosome aberrations in vivo, Assay Code: CYO+D, Dose Response: With dose response, Evaluation Type: Evaluation A (Pre-1980)",active; positive
same,mutagenic call,"Species/Cell Type: Mammalian polychromatic erythrocytes, Assay Type: Micronucleus test, chromosome aberrations, Assay Code: MNT+, Evaluation Type: Evaluation A (Pre-1980)",active; positive
same,mutagenic call,"Species/Cell Type: Mouse (C3H/10T1/2) cells, Assay Type: Cell transformation, Assay Code: CTH+D, Dose Response: With dose response, Evaluation Type: Evaluation A (Pre-1980)",active; positive
same,mutagenic call,"Species/Cell Type: Mouse lymphoma (L5178Y) cells, Assay Type: Forward gene mutation at the thymidine kinase (TK) locus, chromosome aberrations, Assay Code: L51+, Evaluation Type: Evaluation A (Pre-1980)",active; positive
same,mutagenic call,"Species/Cell Type: Neurospora crassa, Assay Type: Aneuploidy, chromosome aberrations, Assay Code: NEN+, Evaluation Type: Evaluation A (Pre-1980)",active; positive
same,mutagenic call,"Species/Cell Type: Nonhuman, Assay Type: Chromosome aberrations in vitro, Assay Code: CY&+D, Dose Response: With dose response, Evaluation Type: Evaluation A (Pre-1980)",active; positive
same,call,"Species/Cell Type: Nonhuman, Assay Type: In vivo carcinogenicity studies, Assay Code: CCG-L, Evaluation Type: Evaluation A (Pre-1980)",inactive; negative
same,mutagenic call,"Species/Cell Type: Nonhuman, Assay Type: Sister-chromatid exchange (SCE) in vitro, Assay Code: SC2+, Evaluation Type: Evaluation A (Pre-1980)",active; positive
same,mutagenic call,"Species/Cell Type: Rodents, Sex: Male, Assay Type: Dominant lethal test, Assay Code: DLTT, Evaluation Type: Evaluation A (Pre-1980)",no conclusion
same,mutagenic call,[5],active; positive
same,mutagenic call,[4],no conclusion
same,mutagenic call,"Species/Cell Type: Serratia marcesens, Assay Type: Reverse gene mutation, host-mediated assay, Assay Code: HMC+, Evaluation Type: Evaluation A (Pre-1980)",active; positive
same,mutagenic call,"Species/Cell Type: Syrian hamster embryo (SHE) cells, Assay Type: Cell transformation, clonal assay, Assay Code: CTC-, Evaluation Type: Evaluation A (Pre-1980)",inactive; negative
N#Cc1ccc2ccccc2c1,mutagenic call,"Species/Cell Type: Allium cepa, Assay Type: Chromosome aberrations, Assay Code: ALC+D, Dose Response: With dose response, Evaluation Type: Evaluation A (Pre-1980)",active; positive
CCC(COS(C)(=O)=O)(COS(C)(=O)=O)COS(C)(=O)=O,mutagenic call,"Species/Cell Type: Arabidopsis species, Assay Type: Gene mutation, Assay Code: ARM+, Evaluation Type: Evaluation A (Pre-1980)",active; positive
CCN1CC[C@@H]2[C@@H](c3ccc(C)cc3)c3cc(C)ccc3[C@@H]2C1,mutagenic call,[6],inactive; negative
same,mutagenic call,"Species/Cell Type: Rodents, Sex: Male, Assay Type: Dominant lethal test, Assay Code: DLT-, Evaluation Type: Evaluation A (Pre-1980)",inactive; negative
same,mutagenic call,[4],no conclusion
Nc1cccc(Cl)c1,mutagenic call,[6],inactive; negative
Cc1c(N)nc(C(CC(N)=O)NCC(N)C(N)=O)nc1C(=O)NC(C(=O)NC(C)C(O)C(C)C(=O)NC(C(=O)NCCc1nc(-c2nc(C(=O)NCCC[S+](C)C)cs2)cs1)C(C)O)C(O[C@@H]1O[C@@H](CO)[C@@H](O)[C@H](O)[C@@H]1O[C@H]1O[C@H](CO)[C@@H](O)[C@H](OC(N)=O)[C@@H]1O)c1cnc[nH]1 (stereo partly specified),mutagenic call,"Species/Cell Type: Human lymphocytes, Assay Type: Sister-chromatid exchange (SCE) in vitro, Assay Code: SCLT, Evaluation Type: Evaluation B (Post-1980)",no conclusion
same,mutagenic call,"Species/Cell Type: Human, Assay Type: Sister-chromatid exchange (SCE) in vitro, Assay Code: SC1T, Evaluation Type: Evaluation B (Post-1980)",no conclusion
same,mutagenic call,"Species/Cell Type: Saccharomyces cerevisiae, Assay Type: Mitotic recombination or gene conversion, Assay Code: YEC+, Evaluation Type: Evaluation A (Pre-1980)",active; positive
same,mutagenic call,[5],active; positive
same,mutagenic call,"Species/Cell Type: Saccharomyces cerevisiae, Assay Type: Reverse gene mutation, Assay Code: YER+, Evaluation Type: Evaluation A (Pre-1980)",active; positive
O=[N+]([O-])c1cc([N+](=O)[O-])c2ccc3cccc4ccc1c2c43,mutagenic call,"Species/Cell Type: Chinese hamster ovary (CHO) cells, Assay Type: Forward gene mutation at the HPRT locus, Assay Code: CHO+*, Activation: With metabolic activation, Evaluation Type: Evaluation B (Post-1980)",active; positive
O=C1C=C(N2CC2)c2ccccc2C1=O,mutagenic call,[7],active; positive
CCN(N=O)C(C)(C)C,mutagenic call,"Species/Cell Type: Drosophila melanogaster, Assay Type: Sex-linked recessive lethal gene mutation, Assay Code: SRLT, Evaluation Type: Evaluation A (Pre-1980)",no conclusion
CNC(=O)Nc1nc(-c2ccc(OC)cc2)cs1,mutagenic call,"Species/Cell Type: Salmonella typhimurium, Assay Type: Forward and reverse gene mutation, host-mediated assay, Assay Code: HMAT, Evaluation Type: Evaluation A (Pre-1980)",no conclusion
CC1C(C)N(N=O)C(C)C(C)N1N=O (stereo unspecified),mutagenic call,[4],no conclusion
CN(Cc1ccccc1)N=O,mutagenic call,"Species/Cell Type: Arabidopsis species, Assay Type: Gene mutation, Assay Code: ARM+D, Dose Response: With dose response, Evaluation Type: Evaluation A (Pre-1980)",active; positive
same,mutagenic call,[7],active; positive
same,mutagenic call,"Species/Cell Type: Nonhuman, Assay Type: Sister-chromatid exchange (SCE) in vitro, Assay Code: SC2+, Evaluation Type: Evaluation B (Post-1980)",active; positive
same,mutagenic call,[2],active; positive
same,mutagenic call,"Species/Cell Type: Salmonella typhimurium, Assay Type: Forward and reverse gene mutation, host-mediated assay, Assay Code: HMA+, Evaluation Type: Evaluation A (Pre-1980)",active; positive
NNCCc1ccccc1,mutagenic call,"Species/Cell Type: Human, Sex: Male, Assay Type: Sperm morphology, Assay Code: SPHT, Evaluation Type: Evaluation A (Pre-1980)",no conclusion
same,mutagenic call,"Species/Cell Type: Nonhuman, Assay Type: Sister-chromatid exchange (SCE) in vivo, Assay Code: SC3+, Evaluation Type: Evaluation B (Post-1980)",active; positive
CS(=O)(=O)OC/C=C/COS(C)(=O)=O,mutagenic call,[7],active; positive
